According to PubChem BioAssay (NCI):
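1) Cells in 96-well plates. 2) Compound, 48 h, 5 concentrations. 3) Linear interpolation between surrounding doses. 4) Unreached endpoint = highest concentration. GI50: concentration for 50% inhibition of growth. TGI: total growth inhibition.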

What was measured:
Experiment in all cases: inhibition of tumour cell growth, NCI panel, 48 h
[1] = test system: NCI-H460 lung
[2] = test system: SF-295 CNS
[3] = test system: HCC-2998 colon
[4] = test system: OVCAR-8 ovarian
[5] = test system: HL-60(TB) leukemia
[6] = test system: SN12C renal
[7] = test system: UACC-62 melanoma
[8] = test system: MDA-MB-231 breast
[9] = test system: SW-620 colon
[10] = test system: 786-0 renal
[11] = test system: OVCAR-3 ovarian
[12] = test system: RXF 393 renal
[13] = test system: HCT-116 colon
[14] = test system: CCRF-CEM leukemia
[15] = test system: NCI-H226 lung
[16] = test system: SF-268 CNS
[17] = test system: BT-549 breast
[18] = test system: HS 578T breast
[19] = test system: DU-145 prostate
[20] = test system: HCT-15 colon
[21] = test system: U251 CNS
[22] = test system: NCI/ADR-RES ovarian
[23] = test system: SK-MEL-28 melanoma
[24] = test system: ACHN renal
[25] = test system: A498 renal
[26] = test system: MCF7 breast
[27] = test system: SF-539 CNS
[28] = test system: MDA-MB-435
[29] = test system: T-47D breast
[30] = test system: UO-31 renal
[31] = test system: SK-MEL-5 melanoma
[32] = test system: A549 NSCLC
[33] = test system: MALME-3M melanoma
[34] = test system: SR leukemia
[35] = test system: SNB-75 CNS
[36] = test system: NCI-H23 lung
[37] = test system: PC-3 prostate
[38] = test system: SNB-19 CNS
[39] = test system: OVCAR-5 ovarian
[40] = test system: KM12 colon
[41] = test system: CAKI-1 renal
[42] = test system: SK-OV-3 ovarian
[43] = test system: K-562 leukemia
[44] = test system: COLO 205 colon
[45] = test system: HT29 colon
[46] = test system: OVCAR-4 ovarian
[47] = test system: LOX IMVI melanoma
[48] = test system: NCI-H522 lung
[49] = test system: SK-MEL-2 melanoma
[50] = test system: TK-10 renal
[51] = test system: MOLT-4 leukemia
[52] = test system: HOP-92 NSCLC
[53] = test system: M14 melanoma
[54] = test system: RPMI-8226 leukemia
[55] = test system: UACC-257 melanoma

Nc1c(C(=O)Nc2cccc(C(F)(F)F)c2)sc2nc3c(cc12)CCCCC3
GI50 [1]: 2.61 µM | TGI [1]: 11.4 µM | GI50 [2]: 2.2 µM | TGI [2]: 12.2 µM | GI50 [3]: 31 µM | TGI [3]: > 100 µM | GI50 [4]: 3.49 µM | TGI [4]: 19.8 µM | GI50 [5]: 15.6 µM | TGI [5]: > 100 µM | GI50 [6]: 3.41 µM | TGI [6]: 19.3 µM | GI50 [7]: 2.69 µM | TGI [7]: 16.7 µM | GI50 [8]: 4.4 µM | TGI [8]: 22.7 µM | GI50 [9]: 6.42 µM | TGI [9]: > 100 µM | GI50 [10]: 1.58 µM | TGI [10]: 3.13 µM | GI50 [11]: 2.84 µM | TGI [11]: 11.5 µM | GI50 [12]: 1.84 µM | TGI [12]: 4.86 µM | GI50 [13]: 1.62 µM | TGI [13]: 4.18 µM | GI50 [14]: 5.56 µM | TGI [14]: > 100 µM | GI50 [15]: 1.57 µM | TGI [15]: 16 µM | GI50 [16]: 2.99 µM | TGI [16]: 16.2 µM | GI50 [17]: 1.7 µM | TGI [17]: 6.33 µM | GI50 [18]: 3.8 µM | TGI [18]: 30.4 µM | GI50 [19]: 4.81 µM | TGI [19]: 28.4 µM | GI50 [20]: 10.7 µM | TGI [20]: > 100 µM | GI50 [21]: 2.2 µM | TGI [21]: 7.98 µM | GI50 [22]: 3.17 µM | TGI [22]: 22.9 µM | GI50 [23]: 3.73 µM | TGI [23]: 23.6 µM | GI50 [24]: 1.56 µM | TGI [24]: 3.73 µM | GI50 [25]: 1.53 µM | TGI [25]: 7.08 µM | GI50 [26]: 2.35 µM | TGI [26]: 13.6 µM | GI50 [27]: 1.94 µM | TGI [27]: 4.48 µM | GI50 [28]: 2.53 µM | TGI [28]: 63.1 µM | GI50 [29]: 1.55 µM | TGI [29]: 8.31 µM | GI50 [30]: 1.64 µM | TGI [30]: 4.88 µM | GI50 [31]: 1.18 µM | TGI [31]: 12 µM | GI50 [32]: 2.25 µM | TGI [32]: 11 µM | GI50 [33]: 3 µM | TGI [33]: 9.49 µM | GI50 [34]: 4.03 µM | TGI [34]: 21.7 µM | GI50 [35]: 1.74 µM | TGI [35]: 3.93 µM | GI50 [36]: 1.72 µM | TGI [36]: 10.9 µM | GI50 [37]: 3.21 µM | TGI [37]: 34.2 µM | GI50 [38]: 4.24 µM | TGI [38]: 19.8 µM | GI50 [39]: 3.43 µM | TGI [39]: 17.3 µM | GI50 [40]: 5.33 µM | TGI [40]: > 100 µM | GI50 [41]: 2.08 µM | TGI [41]: 10.1 µM | GI50 [42]: 1.85 µM | TGI [42]: 4.36 µM | GI50 [43]: 5.42 µM | TGI [43]: 29.7 µM | GI50 [44]: 11.7 µM | TGI [44]: > 100 µM | GI50 [45]: 7.06 µM | TGI [45]: > 100 µM | GI50 [46]: 1.21 µM | TGI [46]: 3.9 µM | GI50 [47]: 3.59 µM | TGI [47]: 58 µM | GI50 [48]: 2.52 µM | TGI [48]: 17.7 µM | GI50 [49]: 3.16 µM | TGI [49]: 19.3 µM | GI50 [50]: 1.83 µM | TGI [50]: 4.47 µM | GI50 [51]: 15 µM | TGI [51]: 51.6 µM | GI50 [52]: 1.82 µM | TGI [52]: 6.23 µM | GI50 [53]: 4.15 µM | TGI [53]: 41.5 µM | GI50 [54]: 4.32 µM | TGI [54]: 35.5 µM | GI50 [55]: 3.64 µM | TGI [55]: 37.4 µM
